Source: PubChem BioAssay AID2060889 (Molecular Pharmacology Branch, DTP, NCI, 2025)

Tested on: LG0567-F671-PDC complex spheroids viability
Assay: Anticancer human tumor LG0567-F671-PDC patient-derived lung adenocarcinoma cell line growth inhibition [RAS]
Settings: for IC50: curve of first compound; for viability, T/C: stronger effect = lower value
Procedure, shortened: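 Tumour cells grown as complex spheroids with HUVEC endothelial cells and mesenchymal stem cells, treated with RAS pathway inhibitor combinations. Each agent spans half-log steps from near clinical Cmax, or 10 microM where Cmax is unknown.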
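Further: spheroids exposed to compound for seven days before readout.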
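Wherever IC50 is given: luminescence signal used as a proxy for viable cells.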

Which results are given for CCN1CCN(Cc2ccc(Nc3ncc(F)c(-c4cc(F)c5nc(C)n(C(C)C)c5c4)n3)nc2)CC1 + CCn1c(-c2cccnc2C(C)OC)c2c3cc(ccc31)N1CCOC(CC(NC(=O)C(C(C)C)N(C)C(=O)C3(F)CCN(C(=O)C#CC(C)(C)N(C)C)CC3)C(=O)N3CCCC(N3)C(=O)OCC(C)(C)C2)C1?
IC50 (second compound 0.000949 µM): < 3.16 nM; IC50 (second compound 0.003 µM): < 3.16 nM; IC50 (second compound 0.00949 µM): < 3.16 nM; IC50 (second compound 0.03 µM): < 3.16 nM; IC50 (second compound 0.0949 µM): < 3.16 nM; IC50 (second compound 0.3 µM): < 3.16 nM; viability, T/C (second compound 0.000949 µM, first compound 0.00316 µM): 15%; viability, T/C (second compound 0.000949 µM, first compound 0.01 µM): 15.8%; viability, T/C (second compound 0.000949 µM, first compound 0.0316 µM): 14.2%; viability, T/C (second compound 0.000949 µM, first compound 0.1 µM): 14.7%; viability, T/C (second compound 0.000949 µM, first compound 0.316 µM): 18.1%; viability, T/C (second compound 0.000949 µM, first compound 1 µM): 17.5%; viability, T/C (second compound 0.003 µM, first compound 0.00316 µM): 14.2%; viability, T/C (second compound 0.003 µM, first compound 0.01 µM): 16.5%; viability, T/C (second compound 0.003 µM, first compound 0.0316 µM): 13%; viability, T/C (second compound 0.003 µM, first compound 0.1 µM): 15.9%; viability, T/C (second compound 0.003 µM, first compound 0.316 µM): 18.7%; viability, T/C (second compound 0.003 µM, first compound 1 µM): 19.9%; viability, T/C (second compound 0.00949 µM, first compound 0.00316 µM): 15.2%; viability, T/C (second compound 0.00949 µM, first compound 0.01 µM): 13.4%; viability, T/C (second compound 0.00949 µM, first compound 0.0316 µM): 14.1%; viability, T/C (second compound 0.00949 µM, first compound 0.1 µM): 14.8%; viability, T/C (second compound 0.00949 µM, first compound 0.316 µM): 16.5%; viability, T/C (second compound 0.00949 µM, first compound 1 µM): 17.4%; viability, T/C (second compound 0.03 µM, first compound 0.00316 µM): 13.1%; viability, T/C (second compound 0.03 µM, first compound 0.01 µM): 12.9%; viability, T/C (second compound 0.03 µM, first compound 0.0316 µM): 13.7%; viability, T/C (second compound 0.03 µM, first compound 0.1 µM): 13.9%; viability, T/C (second compound 0.03 µM, first compound 0.316 µM): 16.8%; viability, T/C (second compound 0.03 µM, first compound 1 µM): 16.5%; viability, T/C (second compound 0.0949 µM, first compound 0.00316 µM): 16%; viability, T/C (second compound 0.0949 µM, first compound 0.01 µM): 13.3%; viability, T/C (second compound 0.0949 µM, first compound 0.0316 µM): 11.8%; viability, T/C (second compound 0.0949 µM, first compound 0.1 µM): 12.2%; viability, T/C (second compound 0.0949 µM, first compound 0.316 µM): 15%; viability, T/C (second compound 0.0949 µM, first compound 1 µM): 15.1%; viability, T/C (second compound 0.3 µM, first compound 0.00316 µM): 10.5%; viability, T/C (second compound 0.3 µM, first compound 0.01 µM): 9.89%; viability, T/C (second compound 0.3 µM, first compound 0.0316 µM): 10.4%; viability, T/C (second compound 0.3 µM, first compound 0.1 µM): 10.7%; viability, T/C (second compound 0.3 µM, first compound 0.316 µM): 13.8%; viability, T/C (second compound 0.3 µM, first compound 1 µM): 11.4%
